pIC50: −log10 of the molar value.

The target of this assay is T1, MAPKAPK5 (Homo sapiens, UniProt Q8IW41).
T1 sequence (Q8IW41 1-471 isoform Q8IW41-2): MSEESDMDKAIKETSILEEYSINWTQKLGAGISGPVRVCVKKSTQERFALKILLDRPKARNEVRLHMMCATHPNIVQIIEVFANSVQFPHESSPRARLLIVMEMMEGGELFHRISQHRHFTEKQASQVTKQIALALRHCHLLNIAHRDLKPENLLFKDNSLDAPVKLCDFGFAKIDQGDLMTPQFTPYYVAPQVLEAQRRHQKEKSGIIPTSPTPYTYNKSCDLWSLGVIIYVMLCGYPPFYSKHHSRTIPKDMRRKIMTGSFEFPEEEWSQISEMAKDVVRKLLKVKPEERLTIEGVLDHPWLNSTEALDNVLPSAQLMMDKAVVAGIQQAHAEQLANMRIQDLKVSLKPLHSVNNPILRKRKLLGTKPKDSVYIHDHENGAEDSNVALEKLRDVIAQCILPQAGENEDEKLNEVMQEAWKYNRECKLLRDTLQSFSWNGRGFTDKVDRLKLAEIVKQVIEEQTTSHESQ
Kind of assay: MAPKAP-K5 FlashPlate kinase assay (33P-ATP). Format: biochemical. Particulars: 0.6 μM ATP, 30 minutes at room temperature. How it is done: 3 μM MAPKAP-K5 peptide substrate
In general, pIC50 refers to −log10 of the IC50, conventionally taken in molar units. Consider `NC(=O)c1cc(-c2cnc(NC3CCN(Cc4ccccc4)C3)c3nccn23)co1` (single isomer, unassigned) [Example 17, 4-[8-(1-BENZYL-PYRROLIDIN-3-YLAMINO)-IMIDAZO[1,2-A]PYRAZIN-5-YL]-FURAN-2-CARBOXYLIC ACID AMIDE], for which the pIC50 is < 6.00.

For the molecule `O=C1NCc2cc(-c3cnc(NC4CCCCC4)c4nccn34)ccc21` [Example 1, 5-(8-(cyclohexylamino)imidazo[1,2-a]pyrazin-5-yl)isoindolin-1-one], the pIC50 is 6.30 to 7.00.

For the molecule `NC(=O)c1cc(-c2cnc(NC3CCC3)c3ncnn23)co1` [Example 2, 4-(8-(cyclobutylamino)-[1,2,4]triazolo[1,5-a]pyrazin-5-yl)furan-2-carboxamide], the pIC50 is 6.30 to 7.00.

As to `NC(=O)c1cc(-c2cnc(NC3CCN(Cc4ccccc4)C3)c3ncnn23)co1` (stereo not drawn) [Example 4, 4-[8-(1-Benzyl-pyrrolidin-3-ylamino)-[1,2,4]triazolo[1,5-a]pyrazin-5-yl]-furan-2-carboxylic acid amide], the pIC50 was 6.00 to 6.30.

The molecule `O=C1NCc2cc(-c3cnc(NC4CCC4)c4nccn34)ccc21` [Example 5, 5-(8-(CYCLOBUTYLAMINO)IMIDAZO[1,2-A]PYRAZIN-5-YL)ISOINDOLIN-1-ONE] had a pIC50 of 6.30 to 7.00.

On to `NC(=O)c1cc(-c2cnc(NC3CCC3)c3nccn23)co1` [Example 6, 4-(8-(CYCLOBUTYLAMINO)IMIDAZO[1,2-A]PYRAZIN-5-YL)FURAN-2-CARBOXAMIDE], for which the pIC50 was 6.30 to 7.00.

Consider `NC(=O)c1cc(-c2cnc(NC3CCCC3)c3nccn23)co1` [Example 7, 4-(8-(CYCLOPENTYLAMINO)IMIDAZO[1,2-A]PYRAZIN-5-YL)FURAN-2-CARBOXAMIDE], for which the pIC50 is 6.00 to 6.30.

Consider `CC(C)(C)OC(=O)N1CCC(Nc2ncc(-c3ccc4c(c3)CNC4=O)n3ncnc23)CC1` [Example 12, TERT-BUTYL 4-(5-(1-OXOISOINDOLIN-5-YL)-[1,2,4]TRIAZOLO[1,5-A]PYRAZIN-8-YLAMINO)PIPERIDINE-1-CARBOXYLATE], for which the pIC50 was 6.00 to 6.30.

`O=C1NCc2cc(-c3cnc(NC4CC4)c4ncnn34)ccc21` [Example 14, 5-(8-(CYCLOPROPYLAMINO)-[1,2,4]TRIAZOLO[1,5-A]PYRAZIN-5-YL)ISOINDOLIN-1-ONE] gave a pIC50 of 6.30 to 7.00.

As to `O=C1NCc2cc(-c3cnc(NC4CCC(O)CC4)c4ncnn34)ccc21` (stereo not drawn) [Example 15, 5-(8-(4-HYDROXYCYCLOHEXYLAMINO)-[1,2,4]TRIAZOLO[1,5-A]PYRAZIN-5-YL)ISOINDOLIN-1-ONE], the pIC50 was 6.30 to 7.00.

`CC(C)(C)OC(=O)NC1CCC(Nc2ncc(-c3ccc4c(c3)CNC4=O)n3ncnc23)CC1` (stereo not drawn) [Example 16, TERT-BUTYL 4-(5-(1-OXOISOINDOLIN-5-YL)-[1,2,4]TRIAZOLO[1,5-A]PYRAZIN-8-YLAMINO)CYCLOHEXYLCARBAMATE] showed a pIC50 of 6.00 to 6.30.

As for `NC(=O)c1cc(-c2cnc(NC3CCN(Cc4ccccc4)CC3)c3ncnn23)co1` [Example 18, 4-[8-(1-BENZYL-PIPERIDIN-4-YLAMINO)-[1,2,4]TRIAZOLO[1,5-A]PYRAZIN-5-YL]-FURAN-2-CARBOXYLIC ACID AMIDE], the pIC50 was < 6.00.
